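Five concentrations, 48 hours, 96-well plates. Here, GI50 denotes the concentration required for 50% inhibition of growth. At the TGI there is no net growth.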
Columns and labels:
Experiment in all cases: NCI-60 cell line screen, 48 h
SNB-19 CNS = system: SNB-19 CNS
DU-145 prostate = system: DU-145 prostate
KM12 colon = system: KM12 colon
MOLT-4 leukemia = system: MOLT-4 leukemia
OVCAR-3 ovarian = system: OVCAR-3 ovarian
NCI-H226 lung = system: NCI-H226 lung
HS 578T breast = system: HS 578T breast
OVCAR-4 ovarian = system: OVCAR-4 ovarian
MDA-MB-231 breast = system: MDA-MB-231 breast
OVCAR-5 ovarian = system: OVCAR-5 ovarian
UACC-62 melanoma = system: UACC-62 melanoma
IGROV1 ovarian = system: IGROV1 ovarian
A549 NSCLC = system: A549 NSCLC
SK-MEL-5 melanoma = system: SK-MEL-5 melanoma
SNB-75 CNS = system: SNB-75 CNS
NCI/ADR-RES ovarian = system: NCI/ADR-RES ovarian
OVCAR-8 ovarian = system: OVCAR-8 ovarian
T-47D breast = system: T-47D breast
HL-60(TB) leukemia = system: HL-60(TB) leukemia
HOP-92 NSCLC = system: HOP-92 NSCLC
HCT-116 colon = system: HCT-116 colon
EKVX NSCLC = system: EKVX NSCLC
HCT-15 colon = system: HCT-15 colon
COLO 205 colon = system: COLO 205 colon
CAKI-1 renal = system: CAKI-1 renal
SK-MEL-28 melanoma = system: SK-MEL-28 melanoma
786-0 renal = system: 786-0 renal
SR leukemia = system: SR leukemia
NCI-H23 lung = system: NCI-H23 lung
SN12C renal = system: SN12C renal
SF-539 CNS = system: SF-539 CNS
U251 CNS = system: U251 CNS
NCI-H460 lung = system: NCI-H460 lung
RXF 393 renal = system: RXF 393 renal
NCI-H522 lung = system: NCI-H522 lung
BT-549 breast = system: BT-549 breast
HOP-62 NSCLC = system: HOP-62 NSCLC
HT29 colon = system: HT29 colon
PC-3 prostate = system: PC-3 prostate
RPMI-8226 leukemia = system: RPMI-8226 leukemia
HCC-2998 colon = system: HCC-2998 colon
TK-10 renal = system: TK-10 renal
MDA-MB-435 = system: MDA-MB-435
SK-OV-3 ovarian = system: SK-OV-3 ovarian
MCF7 breast = system: MCF7 breast
A498 renal = system: A498 renal
ACHN renal = system: ACHN renal
UACC-257 melanoma = system: UACC-257 melanoma
MALME-3M melanoma = system: MALME-3M melanoma
SF-268 CNS = system: SF-268 CNS
M14 melanoma = system: M14 melanoma
UO-31 renal = system: UO-31 renal
SW-620 colon = system: SW-620 colon
LOX IMVI melanoma = system: LOX IMVI melanoma
SK-MEL-2 melanoma = system: SK-MEL-2 melanoma
SF-295 CNS = system: SF-295 CNS
K-562 leukemia = system: K-562 leukemia
CCRF-CEM leukemia = system: CCRF-CEM leukemia

CCNCCCn1c2c(c3cc(OC)c(OC)cc3c1=O)C(=O)c1cc(OC)cnc1-2
GI50 (SNB-19 CNS): 0.529 µM | TGI (SNB-19 CNS): > 51.3 µM | GI50 (DU-145 prostate): 0.639 µM | TGI (DU-145 prostate): 15 µM | GI50 (KM12 colon): 3.33 µM | TGI (KM12 colon): 50 µM | GI50 (MOLT-4 leukemia): 0.0953 µM | TGI (MOLT-4 leukemia): 8.08 µM | GI50 (OVCAR-3 ovarian): 1.4 µM | TGI (OVCAR-3 ovarian): 18.7 µM | GI50 (NCI-H226 lung): 1.28 µM | TGI (NCI-H226 lung): > 35.8 µM | GI50 (HS 578T breast): > 43.9 µM | TGI (HS 578T breast): > 70.3 µM | GI50 (OVCAR-4 ovarian): 2.56 µM | TGI (OVCAR-4 ovarian): 18.7 µM | GI50 (MDA-MB-231 breast): 2.66 µM | TGI (MDA-MB-231 breast): 20.3 µM | GI50 (OVCAR-5 ovarian): 3.89 µM | TGI (OVCAR-5 ovarian): 35.1 µM | GI50 (UACC-62 melanoma): 0.388 µM | TGI (UACC-62 melanoma): 8.21 µM | GI50 (IGROV1 ovarian): 1.02 µM | TGI (IGROV1 ovarian): > 52.8 µM | GI50 (A549 NSCLC): 2.1 µM | TGI (A549 NSCLC): 33.8 µM | GI50 (SK-MEL-5 melanoma): 0.794 µM | TGI (SK-MEL-5 melanoma): 3.3 µM | GI50 (SNB-75 CNS): 0.474 µM | TGI (SNB-75 CNS): 3.45 µM | GI50 (NCI/ADR-RES ovarian): 1.04 µM | TGI (NCI/ADR-RES ovarian): 27.2 µM | GI50 (OVCAR-8 ovarian): 1.2 µM | TGI (OVCAR-8 ovarian): 20.1 µM | GI50 (T-47D breast): 0.711 µM | TGI (T-47D breast): > 100 µM | GI50 (HL-60(TB) leukemia): 1.04 µM | TGI (HL-60(TB) leukemia): 11.8 µM | GI50 (HOP-92 NSCLC): 4.03 µM | TGI (HOP-92 NSCLC): > 60.3 µM | GI50 (HCT-116 colon): 0.376 µM | TGI (HCT-116 colon): 6.59 µM | GI50 (EKVX NSCLC): 15.7 µM | TGI (EKVX NSCLC): > 58.6 µM | GI50 (HCT-15 colon): 1.39 µM | TGI (HCT-15 colon): 19.7 µM | GI50 (COLO 205 colon): 1.38 µM | TGI (COLO 205 colon): > 53.5 µM | GI50 (CAKI-1 renal): 0.339 µM | TGI (CAKI-1 renal): > 50 µM | GI50 (SK-MEL-28 melanoma): 48.5 µM | TGI (SK-MEL-28 melanoma): > 63.1 µM | GI50 (786-0 renal): 0.718 µM | TGI (786-0 renal): 6.4 µM | GI50 (SR leukemia): 0.0685 µM | TGI (SR leukemia): 3.29 µM | GI50 (NCI-H23 lung): 0.736 µM | TGI (NCI-H23 lung): 7.18 µM | GI50 (SN12C renal): 0.837 µM | TGI (SN12C renal): > 51.4 µM | GI50 (SF-539 CNS): 0.432 µM | TGI (SF-539 CNS): 2.14 µM | GI50 (U251 CNS): 0.267 µM | TGI (U251 CNS): 9.16 µM | GI50 (NCI-H460 lung): 0.153 µM | TGI (NCI-H460 lung): 5.11 µM | GI50 (RXF 393 renal): 1.03 µM | TGI (RXF 393 renal): 4.77 µM | GI50 (NCI-H522 lung): 0.197 µM | TGI (NCI-H522 lung): 19.6 µM | GI50 (BT-549 breast): 1.32 µM | TGI (BT-549 breast): 25.5 µM | GI50 (HOP-62 NSCLC): 0.213 µM | TGI (HOP-62 NSCLC): 2.64 µM | GI50 (HT29 colon): 0.462 µM | TGI (HT29 colon): 2.77 µM | GI50 (PC-3 prostate): 1.84 µM | TGI (PC-3 prostate): 26.8 µM | GI50 (RPMI-8226 leukemia): 0.44 µM | TGI (RPMI-8226 leukemia): 4.86 µM | GI50 (HCC-2998 colon): 1.67 µM | TGI (HCC-2998 colon): 29.5 µM | GI50 (TK-10 renal): > 50.4 µM | TGI (TK-10 renal): > 66.4 µM | GI50 (MDA-MB-435): 1.99 µM | TGI (MDA-MB-435): > 55.6 µM | GI50 (SK-OV-3 ovarian): 0.471 µM | TGI (SK-OV-3 ovarian): 2.06 µM | GI50 (MCF7 breast): 0.12 µM | TGI (MCF7 breast): 13 µM | GI50 (A498 renal): 28 µM | TGI (A498 renal): > 58.2 µM | GI50 (ACHN renal): 0.341 µM | TGI (ACHN renal): 29.3 µM | GI50 (UACC-257 melanoma): 1.98 µM | TGI (UACC-257 melanoma): > 55 µM | GI50 (MALME-3M melanoma): 10.9 µM | TGI (MALME-3M melanoma): 36.6 µM | GI50 (SF-268 CNS): 0.765 µM | TGI (SF-268 CNS): > 63.1 µM | GI50 (M14 melanoma): 0.517 µM | TGI (M14 melanoma): 25.8 µM | GI50 (UO-31 renal): 0.615 µM | TGI (UO-31 renal): > 47.2 µM | GI50 (SW-620 colon): 0.358 µM | TGI (SW-620 colon): 19.3 µM | GI50 (LOX IMVI melanoma): 0.313 µM | TGI (LOX IMVI melanoma): 2.32 µM | GI50 (SK-MEL-2 melanoma): > 38.9 µM | TGI (SK-MEL-2 melanoma): > 75.9 µM | GI50 (SF-295 CNS): 0.159 µM | TGI (SF-295 CNS): 11.2 µM | GI50 (K-562 leukemia): 0.256 µM | TGI (K-562 leukemia): 22.9 µM | GI50 (CCRF-CEM leukemia): 0.122 µM | TGI (CCRF-CEM leukemia): 23.3 µM
